Measurements published in patent US6413948B1, “Pharmaceutical compositions and methods of effecting a neuronal activity in an animal using naaladase inhibitors” (Guilford Pharmaceuticals Inc., priority 1996, dated 2002).

Columns and labels:
[1] = tested on: cortical cell cultures; assay: In vitro assay of NAALADase inhibitors on toxicity of NAAG; format: cell-based, rats; conditions: inhibitor 1 μM
Experimental: Dissociated cortical cell cultures are prepared using the papain-dissociation method of Heuttner and Baughman (1986) as modified by Murphy and Baraban (1990). See TABLE VII for the Dissociated Culture Protocol as used herein. Fetuses of embryonic day 17 are removed from timed pregnancy rats (Harlan Sprague Dawley). The cortex is rapidly dissected out in Dulbecco's phosphate-buffered saline, stripped of meninges, and incubated in a papain solution for 15 minutes at 37° C. The tissue is then mechanically triturated and pelleted at 500 g (1000-2000 rpm on swinging bucket Beckman). The pellet is resuspended in a DNAase solution, triturated with a 10 ml pipette ×15-20, layered over a “10×10” solution containing albumin and trypsin inhibitor (see TABLE VII for an example of a “10×10” solution), repelleted, and resuspended in a plating medium containing 10% fetal bovine serum (HyClone A-1111-L), 5% heat-inactivated Equine serum (HyClone A-3311-L), and […] modified Earle's basal medium (MEM) (Gibco 51200-020) with high glucose (4.5 g/L), and 1 g/L NaHCO3. Each 24-well plate is pretreated with poly-D-lysine (0.5 ml/well of 10 μg/ml) for 1 h and rinsed with water before plating. Cultures are plated at 2.5×10^6 cells/ml with each well of a 24 well plate receiving 500 μl/well. Alternatively, 35 mm dishes can be plated at 2 ml/dish, 6 well plates at 2 ml/well, or 12 well plates at 1 ml/well. After plating, 50% of the medium is changed every 3-4 days with growth serum containing 5% heat-inactivated Equine serum (HyClone A3111-L), 95% modified Earle's basal medium (MEM)(Gibco 51200-020), and 1% L-Glutamine (Gibco 25030-081). Experiments are performed after 21 days in cultures. Cultures are maintained in a 5% CO2 atmosphere at 37° C. These methodologies are described in further detail below in the TABLE VII.
At the end of exposure, the cells are washed once with HEPES buffered saline solution and then replaced with serum free modified Earle's basal medium. The cultures are then returned to the CO2 incubator for 24 hour recovery.
Release of the cytosolic enzyme lactate dehydrogenase (LDH), a standard measure of cell lysis, is used to quantify injury (Koh and Choi, 1987). LDH-activity measurements are normalized to control for variability between culture preparations (Koh and Choi, 1987). […] This control measurement is subtracted from each experimental point. […] Only main effects of NAALADase inhibitors are considered; interactions between dose and condition are not examined statistically.

[2] = tested on: SHRSP rats which had sustained middle cerebral artery occlusion (MCAO); assay: In vivo assay on cortical injury following MCAO in SHRSP rats
Excerpt: A colony of SHRSP rats is bred at Johns Hopkins School of Medicine from three pairs of male and female rats obtained from the National Institutes of Health (Laboratory, Sciences Section, Veterinary Resources Program, National Center for Research Resources, Bethesda, Md.). All rats are kept in a virus-free environment and maintained on regular diet (NIH 31, Zeigler Bros, Inc.) with water ad libitum. All groups of rats are allowed to eat and drink water until the morning of the experiment.
Transient occlusion of the middle cerebral artery (MCA) is induced by advancing a 4-0 surgical nylon suture into the internal carotid artery (ICA) to block the origin of the MCA (Koizumi, 1986; Longa, 1989; Chen, 1992). The rats are anesthetized with 4% halothane, and maintained with 1.0% to 1.5% halothane in air enriched oxygen using a face mask. Rectal temperature is maintained at 37.0±0.5° C. throughout the surgical procedure using a heating lamp. The right femoral artery is cannulated for measuring blood gases (pH, oxygen tension [PO2], carbon dioxide tension [PCO2]) before and during ischemia, for monitoring blood pressure during the surgery. The right common carotid artery (CCA) is exposed through a midline incision; a self-retraining retractor is positioned between the digastric and mastoid muscles, and the omohyoid muscle is divided. The right external carotid artery (ECA) is dissected and ligated. The occipital artery branch of the ECA is then isolated and coagulated. Next, the right internal carotid artery (ICA) is isolated until the pterygopalatine artery is exposed, and carefully separated from the adjacent vagus nerve. The pterygopalatine artery is ligated with 4-0 silk suture close to its origin.
After the CCA is ligated with 4-0 silk suture, a 4-0 silk suture to prevent bleeding from a puncture site, through which a 2.5 cm length of 4-0 monofilament nylon suture (Ethilon), its tip rounded by heating near a electric cautery, is introduced into the ICA lumen. A 6-0 silk suture is tightened around the intraluminal nylon suture at the bifurcation to prevent bleeding, and the stretched sutures at the CCA and the ICA are released. The nylon suture is then gently advanced as far as 20 mm.
Anesthesia is terminated after 10 minutes of MCA occlusion in both groups, and the rats were awakened 5 minutes thereafter. After 2 hours of ischemia, anesthesia is reanesthetized, and reperfusion is performed by withdrawing the intraluminal nylon suture until the distal tip became visible at the origin of the ICA.
Arterial pH and PaCO2, and partial pressure of oxygen (PaO2) are measured with a self-calibrating Radiometer electrode system (ABL 3; Copenhagen, Denmark). Hemoglobin and arterial oxygen content are measured with a hemoximeter (Radiometer, Model OSM3; Copenhagen, Denmark). Blood glucose is measured with a glucose analyzer (model 2300A, Yellow Springs Instruments, Yellow Springs, Ohio).
Each group is exposed to 2 hours of right MCA occlusion and 22 hours of reperfusion. All variables but the rectal temperature are measured at baseline, at 15 minutes and 45 minutes of right MCA occlusion. The rectal temperature is measured at baseline, at 0 and 15 min of MCA occlusion, and at 0 and 22 hours of reperfusion.

[3] = tested on: MPTP lesioned mice; assay: In vivo assay on Parkinson's Disease (MPTP lesioned mice, TH immunostaining); design: species or system CD1 white mice
Experimental: MPTP lesioning of dopaminergic neurons in mice was used as an animal model of Parkinson's Disease, as described by Steiner, Proc. Natl. Acad. Sci., Vol. 94, pp. 2019-2024 (March 1997). In brief, four week old male CD1 white mice were dosed IP with 30 mg/kg of MPTP for 5 days. […] At 18 days following MPTP treatment, the mice were sacrificed and their brains were removed and sectioned. Immunostaining was performed on saggital and coronal brain sections using anti-tyrosine hydroxylase (TH) antibodies to quantitate survival and recovery of dopaminergic neurons.

[4] = 10 mg/kg followed by 2 mg/kg/hr for 1 hour
[5] = 100 mg/kg followed by 20 mg/kg/hr for one hour

O=C(O)CCC(CP(=O)(O)O)C(=O)O (stereo not drawn) [2-(phosphonomethyl)pentanedioic acid]
% Toxicity ([1]; NAAG 3 μM): −4.71 (n = 1) %
% Toxicity ([1]; NAAG 10 μM): −3.08 ± 0.81 (n = 3) %
% Toxicity ([1]; NAAG 30 μM): −4.81 ± 1.13 (n = 3) %
% Toxicity ([1]; NAAG 100 μM): −2.87 ± 0.78 (n = 3) %
% Toxicity ([1]; NAAG 300 μM): −2.09 ± 0.48 (n = 3) %
% Toxicity ([1]; NAAG 1 mM): 0.26 ± 1.11 (n = 3) %
% Toxicity ([1]; NAAG 3 mM): 16.83 ± 8.76 (n = 3) %
Cortical Injury Volume (% injury) ± S.E.M. [2, 4]: 29.14 ± 7.68 (n = 10) % injury
Cortical Injury Volume (mm^3) ± S.E.M. [2, 4]: 135.00 ± 32.18 (n = 10) mm^3
Cortical Protection (% protection) [2, 4]: 27%
Cortical Injury Volume (% injury) ± S.E.M. [2, 5]: 13.98 ± 6.64 (n = 10) % injury
Cortical Injury Volume (mm^3) ± S.E.M. [2, 5]: 65.23 ± 32.18 (n = 10) mm^3
Cortical Protection (% protection) [2, 5]: 65%
Percent Strial TH Innervation Density (mean ± SEM) ([3]; MPTP 30 mg/kg IP for 5 days plus compound 10 mg/kg SC): 16.28 ± 0.98%
recovery of TH-stained dopaminergic neurons (in words) ([3]; lesioned mice, 10 mg/kg, p<0.001): significant recovery
